Test results taken from patent US4996227A, “3-(heteroarylalkyene)- and 3-(arylalkylene)-2,4(3H,5H)-heterocyclic diones as cancer chemotherapy drugs” (priority 1989, dated 1991).

Experiments:
Assay type in all cases: cell-based
[1] = system: KS62 strain stem-cell human leukemia cells; assay: Inhibition of human leukemia cell growth in vitro, as done in Example 3; settings: for inhibition at 1 µg/mL / inhibition at 5 µg/mL / inhibition at 10 µg/mL: Homo sapiens
Description: A conventionally available cell line (K562) derived from human chronic granulocytic leukemia was employed in an in vitro procedure. The leukemia cell line was cultured in a suspension of RPMI 1640 plus 10% fetal calf serum. All initial cell concentrations for the cultures were 0.65 times 10^5 cells/ml. Four separate suspension cultures were employed with the first suspension culture having no additions. The second suspension culture included 100 microliters of the solvent DMSO per 10 ml of culture (control). The third culture contained 1 ug/ml of 3[[5-methyl-2 thienyl]methylene]-2, 4 (3H, 5H) furandione and the fourth culture contained 1 ug/ml of 3[[3-methyl-2-thienyl]methylene]-2, 4 (3H, 5H) furandione. The cell concentration of each of the four cultures was determined. After three days and again after five days.
In this example, aliquots of 1.0, 5.0 and 10.0 mcg/ml of each of the family compounds was prepared and assayed against KS62 strain stem-cell human leukemia cells in an in vitro procedure as done in Example 3 above.

human tumor H5319 BREAST = assay: Human Tumor Stem Cell Assay, colony growth after one hour exposure; settings: HI: furandione 1.0 mcg/ml; standard drugs 50% of peak plasma concentration; 1 h
From the text: (§1) The in vitro Human Tumor Stem Cell Assay procedure described as follows has several advantages for testing the effectiveness of chemotherapy drugs such as the 3-(heteroarylalkylene)-2,4(3H,5H)-furandiones. The first advantage is that fresh tumor cells from a variety of tumor types were used rather than a small number of cell lines which have undergone severe selection pressures as they are passed in vitro. The second advantage is that only the anchorage-independent tumor cells will form colonies in soft agar so that any non-malignant cells present in the sample will not form colonies. Perhaps the most important advantage, however, is the emphasis on cells which have the ability to form colonies. These cells, which are generally called stem cells, usually comprise only a small percentage of all tumor cells. They are thought to be the most important cells for growth and distant spread of a tumor. In particular, these cells have the potential to leave the primary tumor and form new tumors at distant sites (called metastases). It is the effectiveness against these very important stem cells that the Human Tumor Stem Cell Assay measures.
(§2) One of the 3-(heteroarylalkylene)-2,4(3H,5H)-furandione compounds, 3-[(5-methyl-2-thienyl) methylene]-2,4(3H,5H)-furandione was evaluated against a series of 10 human tumors in the in vitro Human Tumor Cell Assay, along with conventional and standard chemotherapy agents.
(§3) In the procedure, a single cell suspension was prepared from tumors excised from patients during therapeutic or diagnostic surgical procedures. The human tumor cells were exposed to known anticancer drugs or to [(5-methyl-2-thienyl)methylene]-2,4 (3H, 5H)-furandione at a low (0.2 mcg/ml) or a high (1.0 mcg/ml) concentration for one hour. […] The suspension was washed with tissue culture medium to remove the drug.
(§4) The suspension was then cultured in a double soft agar suspension. Control cells which had been treated identically, except for exposure to the drugs, were also cultured. After one to two weeks, both the tumor cells and the control cells formed colonies in the soft agar which were enumerated under a microscope. The number of colonies grown from the drug-treated cells was compared to the number of colonies grown from the control cells, and the percentage growth after exposure to the drug was calculated.
(§5) The results are illustrated in Table 1, wherein the various numbers indicate the percentage of growth. For example, a small number like 6 means that the number of colonies is only 6% of the number without addition of the compound. On the other hand, a large number like 120 means that the number of colonies is 20% greater with the compound than without.
(§6) Of the nine tumors for which the higher concentration (1.0 mcg/ml) of the furandione was used, five gave inhibition of colony growth corresponding to borderline sensitive (30-50% growth) and four gave inhibition corresponding to sensitivity (0-30% growth). Clinical drugs are normally tested at 10% of their peak plasma concentration. For the standard chemotherapy drugs shown in Table 1, the low concentration (LO) corresponds to this 10% level, and the high concentration (HI) is at 50% of the peak plasma concentration. Of the same nine tumors, only two would have been rated as sensitive or borderline sensitive to any of the other clinical drugs tested.

[2] = system: human tumor H5322 STOMACH; assay: as above; settings: 1 h
From the text: as §1, §2, §3, §4, §5, §6

[3] = system: human tumor H5325 SARCOMA; assay: as above; settings: 1 h
From the text: as §1, §2, §3, §4, §5, §6

human tumor H5331 OVARY = assay: as above; settings: 1 h
From the text: as §1, §2, §3, §4, §5, §6

human tumor H5337 COLON = assay: as above; settings: 1 h
From the text: as §1, §2, §3, §4, §5, §6

human tumor H5349 BREAST = assay: as above; settings: 1 h
From the text: as §1, §2, §3, §4, §5, §6

human tumor H5330 THYMUS = assay: as above; settings: 1 h
From the text: as §1, §2, §3, §4, §5, §6

human tumor H5318 OVARY = assay: as above; settings: HI: furandione 1.0 mcg/ml; standard drugs 50% of peak plasma concentration; 1 h
From the text: as §1, §2, §3, §4, §5, §6

[4] = HI: furandione 1.0 mcg/ml, standard drugs 50% of peak plasma concentration
[5] = LO: furandione 0.2 mcg/ml, standard drugs 10% of peak plasma concentration

Molecule	inhibition at 1 µg/mL ([1]; 1.0 mcg/ml) [%]	inhibition at 5 µg/mL ([1]; 5.0 mcg/ml) [%]	inhibition at 10 µg/mL ([1]; 10.0 mcg/ml) [%]	also measured
O=C1CNC(=O)C1=Cc1ccc(Br)s1 [Compound 64]	0	0	0	
O=c1[nH]cc(F)c(=O)[nH]1 [Compound 5FU, 5FLUORACIL]				percentage of growth (colonies vs control) (human tumor H5319 BREAST): 111%; percentage of growth (colonies vs control) [2, 4]: 79%; percentage of growth (colonies vs control) [3, 4]: 83%; percentage of growth (colonies vs control) (human tumor H5331 OVARY; [4]): 51%; percentage of growth (colonies vs control) (human tumor H5331 OVARY; [5]): 94%; percentage of growth (colonies vs control) (human tumor H5337 COLON; [5]): 62%; percentage of growth (colonies vs control) (human tumor H5349 BREAST; [4]): 117%
O=C1COC(=O)C1=CC=Cc1ccc(Br)s1 [Compound 54]	27	99	100	
ACTINOMYCEN D				percentage of growth (colonies vs control) [3, 4]: 22%; percentage of growth (colonies vs control) [3, 5]: 6%
O=C1COC(=O)C1=Cc1ccc(Br)s1 [Compound 49]	0	0	98	
CN(C)c1ccc(C=C2C(=O)COC2=O)cc1 [Compound 57]	17	94	96	
CN(C)/N=N/c1[nH]cnc1C(N)=O [DTIC, DACARBAZINE]				percentage of growth (colonies vs control) (human tumor H5330 THYMUS; [4]): 59%; percentage of growth (colonies vs control) (human tumor H5330 THYMUS; [5]): 91%
CCOC(=O)c1ccc(C=C2C(=O)CNC2=O)s1 [Compound 65]	7	32	75	
CC1(C)OC(=O)C(=Cc2ccc(Br)s2)C1=O [Compound 60]	0	96	100	
CC1(C)OC(=O)C(=Cc2ccc(I)s2)C1=O [Compound 59, 3-[(5-iodo-2-thienyl)methylene]-5.5-dimethyl-2,4 (3H)furandione]	1	37	94	
CCOC(=O)c1ccc(C=C2C(=O)COC2=O)s1 [Compound 45, 3-[(5-ethoxycarbonyl-2-thienyl)-methylene]-2,4(3H,5H) -furandione]	0	0	100	
Cc1ccc(C=C2C(=O)OC(C)(C)C2=O)s1 [Compound 58]	51	97	100	
Cc1ccc(C=C2C(=O)CSC2=O)s1 [Compound 69]	13	41	100	
O=C1COC(=O)C1=Cc1ccc(C(=O)O)s1 [Compound 50, 3-[(5-carboxy-2-thienyl)-methylene]-2,4(3H,5H)-furandione]	0	0	0	
N[C@@H](Cc1ccc(N(CCCl)CCCl)cc1)C(=O)O [MPL, MELPHALAN]				percentage of growth (colonies vs control) (human tumor H5319 BREAST): 85%; percentage of growth (colonies vs control) [2, 4]: 61%; percentage of growth (colonies vs control) [2, 5]: 54%; percentage of growth (colonies vs control) [3, 4]: 12%; percentage of growth (colonies vs control) (human tumor H5330 THYMUS; [4]): 92%; percentage of growth (colonies vs control) (human tumor H5330 THYMUS; [5]): 31%; percentage of growth (colonies vs control) (human tumor H5331 OVARY; [4]): 76%; percentage of growth (colonies vs control) (human tumor H5337 COLON; [4]): 58%; percentage of growth (colonies vs control) (human tumor H5337 COLON; [5]): 76%; percentage of growth (colonies vs control) (human tumor H5349 BREAST; [4]): 65%; percentage of growth (colonies vs control) (human tumor H5349 BREAST; [5]): 63%
O=C1COC(=O)C1=Cc1ccc(N2CCCCC2)s1 [Compound 56]				% Inhibition ([1]; 1.0 mcg/ml): 0%; % Inhibition ([1]; 5.0 mcg/ml): 0%; % Inhibition ([1]; 10.0 mcg/ml): 0%
Cc1ccsc1C=C1C(=O)OC(C)(C)C1=O [Compound 62, 3[(3-methyl-2-thienyl)methylene]-5,5dimethyl-2,4(3H,5H) furandione]	6	99	100	
COc1cc([C@@H]2c3cc4c(cc3[C@@H](O[C@@H]3O[C@@H]5CO[C@@H](C)O[C@H]5[C@H](O)[C@H]3O)[C@H]3COC(=O)[C@H]23)OCO4)cc(OC)c1O [VP16]				percentage of growth (colonies vs control) (human tumor H5330 THYMUS; [4]): 77%
Cc1ccc(C=C2C(=O)CNC2=O)s1 [Compound 63, 3-[(5-methyl-2-thienyl)methylene] -2,4(3H.5H) pyrrolidinedione]	0	0	0	
CN(C)c1nc(N(C)C)nc(N(C)C)n1 [HXM, HEXAMETHYLMELAMINE]				percentage of growth (colonies vs control) (human tumor H5318 OVARY): 102%; percentage of growth (colonies vs control) (human tumor H5331 OVARY; [4]): 84%
COc1ccc(C=C2C(=O)COC2=O)c(OC)c1 [Compound 52, 3-[(2,4-dimethoxy-1-phenyl)methylene]-2,4(3H,5H)-furandione]	8	38	95	
O=C1COC(=O)C1=Cc1ccc(Cl)c(Cl)c1 [Compound 55, 3-[(3,4-dichloro-1-phenyl)methylene]-2,4(3H,5H) -furandione]				% Inhibition ([1]; 1.0 mcg/ml): 0%; % Inhibition ([1]; 5.0 mcg/ml): 0%; % Inhibition ([1]; 10.0 mcg/ml): 0%
O=C1CNC(=O)C1=Cc1ccc(N2CCCCC2)s1 [Compound 68, 3-(5-N-piperdyl-2-thienyl)methylene1-2.4(3H.5H) pyrrolidinedione]				% Inhibition ([1]; 1.0 mcg/ml): 0%; % Inhibition ([1]; 5.0 mcg/ml): 0%; % Inhibition ([1]; 10.0 mcg/ml): 0%
Cc1ccsc1C=C1C(=O)COC1=O [Compound 51, 3-[(3-methyl-2-thienyl)methylene]-2.4(3H.5H)-furandione]	37	100	100	
O=C1CSC(=O)C1=Cc1ccc(Br)s1 [Compound 70, 3-[(5-bromo-2-thienyl)methylene]-2.4(3H,5H)-1-thiophene dione]	22	30	54	
Cc1ccsc1C=C1C(=O)CNC1=O [Compound 66, 3-(3-methyl-2-thienyl)methylene1-2,4(3H,5H) pyrrolidinedione]	0	15	54	
Cc1ccc(C=CC=C2C(=O)CNC2=O)s1 [Compound 67, 3-[(5-methyl-2-thienyl)propylenediene]-2,4(3H,5H) pyrrolidinedione]	0	0	94	
O=C1COC(=O)C1=Cc1ccc(I)s1 [Compound 48, 3-[(5-iodo-2-thienyl)-methylene]-2.4(3H,5H)-furandione]	0	0	98	
Cc1ccc(C=CC=C2C(=O)COC2=O)s1 [Compound 53, 3-[(5-methyl-2-thienyl)propylenediene)-2,4(3H,5H)-furandione]	0	71	99	
CCOC(=O)c1ccc(C=C2C(=O)OC(C)(C)C2=O)s1 [Compound 61, 3-(5-carboxyethyl-2-thienyl)methylene1-5.5-dimethyl 11-2,4(3H)furandione]	0	18	42	
